In US20160158200A1, “Combinations of Hepatitis C Virus Inhibitors” (priority 2013, published 2016):

Test system: HCV genotype-1a variant with glutamine 30 changed to glutamate in the NS5A protein
Format: cell-based
Conditions: test compound titrated with BMS-790052 fixed at 200 nM; genotype 1a Q30E replicon
Method in brief: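 Synergy was assessed by combining several fixed amounts of an NS5A-targeting compound with a titration of the second compound of interest.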

| SMILES | Fold-Synergistic 1a (Q30E) [fold] |
| --- | --- |
| CC(C)OC(=O)N1C2CCC1(C(=O)N[C@H](c1nc(-c3ccc(-c4ccc(-c5c[nH]c([C@@H](NC(=O)C67CCC(CC6)N7C(=O)OC(C)C)C(C)(C)C)n5)cc4)cc3)c[nH]1)C(C)(C)C)CC2.O=C(O)C(F)(F)F.O=C(O)C(F)(F)F [Compound W-118] | >100 |
| CC1(OC(=O)N2CC(F)CC2C(=O)NC(c2nc(-c3ccc(-c4ccc(-c5c[nH]c(C(NC(=O)C6CC(F)CN6C(=O)OC6(C)CC6)C(C)(C)C)n5)cc4)cc3)c[nH]2)C(C)(C)C)CC1 (stereo not shown) [Compound W-119] | >100 |
| CC1(C)CC(C(=O)N[C@H](c2nc(-c3ccc(-c4ccc(-c5c[nH]c([C@@H](NC(=O)C6CCOC(C)(C)C6)C(C)(C)C)n5)cc4)cc3)c[nH]2)C(C)(C)C)CCO1 (stereo partly shown) [Compound W-122] | >100 |
| CC(C)(C)[C@H](NC(=O)C1CCOCC1)c1nc(-c2ccc(-c3ccc(-c4c[nH]c([C@@H](NC(=O)C5CCOCC5)C(C)(C)C)n4)cc3)cc2)c[nH]1 [Compound W-123] | >100 |
| COC(=O)C1(C(=O)N[C@H](c2nc(-c3ccc(-c4ccc(-c5c[nH]c([C@@H](NC(=O)C6(C(=O)OC)CC6)C(C)(C)C)n5)cc4)cc3)c[nH]2)C(C)(C)C)CC1 [Compound W-124] | >100 |
| CC(CO)(CO)C(=O)N[C@H](c1nc(-c2ccc(-c3ccc(-c4c[nH]c([C@@H](NC(=O)C(C)(CO)CO)C(C)(C)C)n4)cc3)cc2)c[nH]1)C(C)(C)C [Compound W-125] | >100 |
| CCOC(=O)C(C)(C)C(=O)N[C@H](c1nc(-c2ccc(-c3ccc(-c4c[nH]c([C@@H](NC(=O)C(C)(C)C(=O)OCC)C(C)(C)C)n4)cc3)cc2)c[nH]1)C(C)(C)C.O=C(O)C(F)(F)F.O=C(O)C(F)(F)F [Compound W-126] | >100 |
| COC(=O)C12CCC(C(=O)N[C@H](c3nc(-c4ccc(-c5ccc(-c6c[nH]c([C@@H](NC(=O)C78CCC(C(=O)OC)(CC7)CC8)C(C)(C)C)n6)cc5)cc4)c[nH]3)C(C)(C)C)(CC1)CC2 [Compound W-127] | >100 |
| CC(C)(C)[C@H](NC(=O)C12CCC(O)(CC1)CC2)c1nc(-c2ccc(-c3ccc(-c4c[nH]c([C@@H](NC(=O)C56CCC(O)(CC5)CC6)C(C)(C)C)n4)cc3)cc2)c[nH]1 [Compound W-128] | >100 |
| CC(C)(C)[C@H](NC(=O)C1CCOC1)c1nc(-c2ccc(-c3ccc(-c4c[nH]c([C@@H](NC(=O)C5CCOC5)C(C)(C)C)n4)cc3)cc2)c[nH]1 (stereo partly shown) [Compound W-129] | >10 |
| CC1(C(=O)N[C@H](c2nc(-c3ccc(-c4ccc(-c5c[nH]c([C@@H](NC(=O)C6(C)CCOCC6)C(C)(C)C)n5)cc4)cc3)c[nH]2)C(C)(C)C)CCOCC1 [Compound W-130] | >100 |
| CC(C)(C)[C@H](NC(=O)C1CCCOC1)c1nc(-c2ccc(-c3ccc(-c4c[nH]c([C@@H](NC(=O)C5CCCOC5)C(C)(C)C)n4)cc3)cc2)c[nH]1 (stereo partly shown) [Compound W-131] | >100 |
| CC(C)(C)OC(=O)NC1(C(=O)N[C@H](c2nc(-c3ccc(-c4ccc(-c5c[nH]c([C@@H](NC(=O)C6(NC(=O)OC(C)(C)C)CCOCC6)C(C)(C)C)n5)cc4)cc3)c[nH]2)C(C)(C)C)CCOCC1 [Compound W-132] | >100 |
| CC(C)(C)C(NC(=O)C1CCC(O)CC1)c1nc(-c2ccc(-c3ccc(-c4c[nH]c(C(NC(=O)C5CCC(O)CC5)C(C)(C)C)n4)cc3)cc2)c[nH]1 (stereo not shown) [Compound W-134] | >100 |
| CC(C)(C(=O)N[C@H](c1nc(-c2ccc(-c3ccc(-c4c[nH]c([C@@H](NC(=O)C(C)(C)C(=O)N5CCOCC5)C(C)(C)C)n4)cc3)cc2)c[nH]1)C(C)(C)C)C(=O)N1CCOCC1 [Compound W-135] | >10 |
| CC(C)(Br)C(=O)N[C@H](c1nc(-c2ccc(-c3ccc(-c4c[nH]c([C@@H](NC(=O)C(C)(C)Br)C(C)(C)C)n4)cc3)cc2)c[nH]1)C(C)(C)C [Compound W-149] | >100 |
| CC(C)(C)[C@H](NC(=O)C(C)(C)n1cnc(C(F)(F)F)c1)c1nc(-c2ccc(-c3ccc(-c4c[nH]c([C@@H](NC(=O)C(C)(C)n5cnc(C(F)(F)F)c5)C(C)(C)C)n4)cc3)cc2)c[nH]1 [Compound W-150] | >100 |
| CC(C)[C@H](NC(=O)C(C)(C)N1C[C@@H](C)O[C@@H](C)C1)c1nc(-c2ccc(-c3ccc(-c4c[nH]c([C@@H](NC(=O)C(C)(C)N5C[C@@H](C)O[C@@H](C)C5)C(C)C)n4)cc3)cc2)c[nH]1 [Compound W-161] | >100 |
| CC(C)(C)[C@H](NC(=O)C1CC(=O)C1)c1nc(-c2ccc(-c3ccc(-c4c[nH]c([C@@H](NC(=O)C5CC(=O)C5)C(C)(C)C)n4)cc3)cc2)c[nH]1 [Compound W-171] | >100 |
| CC(C)[C@H](NC(=O)C1CC(=O)C1)c1nc(-c2ccc(-c3ccc(-c4c[nH]c([C@@H](NC(=O)C5CC(=O)C5)C(C)C)n4)cc3)cc2)c[nH]1 [Compound W-172] | >10 |

| SMILES | Fold-Synergistic 1a (Q30E) [fold] |
| --- | --- |
| CC(C)(C)[C@H](NC(=O)C1CCC(=O)CC1)c1nc(-c2ccc(-c3ccc(-c4c[nH]c([C@@H](NC(=O)C5CCC(=O)CC5)C(C)(C)C)n4)cc3)cc2)c[nH]1 [Compound W-173] | >100 |
| CC1(O)CCC(C(=O)N[C@H](c2nc(-c3ccc(-c4ccc(-c5c[nH]c([C@@H](NC(=O)C6CCC(C)(O)CC6)C(C)(C)C)n5)cc4)cc3)c[nH]2)C(C)(C)C)CC1 (stereo partly shown) [Compound W-175] | >100 |
| CC(C)(C)[C@H](NC(=O)C1CC2(C1)OCCO2)c1nc(-c2ccc(-c3ccc(-c4c[nH]c([C@@H](NC(=O)C5CC6(C5)OCCO6)C(C)(C)C)n4)cc3)cc2)c[nH]1 (stereo partly shown) [Compound W-178] | >100 |
| CC(C)(C)[C@H](Nc1nc(Cl)c(Cl)s1)c1nc(-c2ccc(-c3ccc(-c4c[nH]c([C@@H](Nc5nc(Cl)c(Cl)s5)C(C)(C)C)n4)cc3)cc2)c[nH]1 [Compound W-179] | >10 |
| CC(C)C(NC(=O)C1CC(F)CN1C(=O)OC(C)(C)C)c1nc(-c2ccc(-c3ccc(-c4c[nH]c(C(NC(=O)C5CC(F)CN5C(=O)OC(C)(C)C)C(C)C)n4)cc3)cc2)c[nH]1 (stereo not shown) [Compound W-181] | >100 |
| C[C@H]1CCN(C(=O)C(=O)N2CCC(F)(F)CC2)C1c1nc(-c2ccc(-c3ccc(-c4c[nH]c(C5[C@@H](C)CCN5C(=O)C(=O)N5CCC(F)(F)CC5)n4)cc3)cc2)c[nH]1 (stereo partly shown) [Compound W-186] | >100 |
| C[C@H]1CCN(C(=O)C(=O)N2CCC(F)(F)CC2)C1c1nc(-c2ccc(-c3ccc(-c4c[nH]c(C5[C@@H](C)CCN5C(=O)C(=O)N5CCC(F)(F)CC5)n4)cc3)cc2)c[nH]1 (stereo partly shown) [Compound W-187] | >100 |
| C[C@H]1CCN(C(=O)C2CCC(F)(F)CC2)C1c1nc(-c2ccc(-c3ccc(-c4c[nH]c([C@@H]5[C@@H](C)CCN5C(=O)C5CCC(F)(F)CC5)n4)cc3)cc2)c[nH]1 (stereo partly shown) [Compound W-188] | >10 |
| O=C(C(=O)N1CCCC1c1nc(-c2ccc(-c3ccc(-c4c[nH]c([C@@H]5CCCN5C(=O)C(=O)N5CCC(F)(F)CC5)n4)cc3)cc2)c[nH]1)N1CCC(F)(F)CC1 (stereo partly shown) [Compound W-189] | >100 |
| CC(C)(C)[C@H](NC(=O)[C@]1(C)C[C@@H](F)CN1)c1nc(-c2ccc(-c3ccc(-c4c[nH]c([C@@H](NC(=O)[C@]5(C)C[C@@H](F)CN5)C(C)(C)C)n4)cc3)cc2)c[nH]1 [Compound W-209] | >100 |
| COC(=O)N1C[C@H](F)C[C@@]1(C)C(=O)N[C@H](c1nc(-c2ccc(-c3ccc(-c4c[nH]c([C@@H](NC(=O)[C@]5(C)C[C@@H](F)CN5C(=O)OC)C(C)(C)C)n4)cc3)cc2)c[nH]1)C(C)(C)C [Compound W-210] | >100 |
| CC(C)(C)OC(=O)N1CCC(C)(C)[C@@H]1C(=O)N[C@H](c1nc(-c2ccc(-c3ccc(-c4c[nH]c([C@@H](NC(=O)[C@@H]5N(C(=O)OC(C)(C)C)CCC5(C)C)C(C)(C)C)n4)cc3)cc2)c[nH]1)C(C)(C)C [Compound W-211] | >100 |
| CC(C)(C)OC(=O)N1CCC(C)(C)[C@H]1C(=O)N[C@H](c1nc(-c2ccc(-c3ccc(-c4c[nH]c([C@@H](NC(=O)[C@H]5N(C(=O)OC(C)(C)C)CCC5(C)C)C(C)(C)C)n4)cc3)cc2)c[nH]1)C(C)(C)C [Compound W-214] | >100 |
| CC1(C)CCN(C(=O)C2CCC(F)(F)CC2)C1c1nc(-c2ccc(-c3ccc(-c4c[nH]c(C5N(C(=O)C6CCC(F)(F)CC6)CCC5(C)C)n4)cc3)cc2)c[nH]1 (stereo not shown) [Compound W-217] | >10 |
| CC1(C)CCN(C(=O)C(=O)N2CCC(F)(F)CC2)C1c1nc(-c2ccc(-c3ccc(-c4c[nH]c(C5N(C(=O)C(=O)N6CCC(F)(F)CC6)CCC5(C)C)n4)cc3)cc2)c[nH]1 (stereo not shown) [Compound W-218] | >10 |
| CC(C)(C)C(=O)N1CCC(C)(C)C1c1nc(-c2ccc(-c3ccc(-c4c[nH]c(C5N(C(=O)C(C)(C)C)CCC5(C)C)n4)cc3)cc2)c[nH]1 (stereo not shown) [Compound W-219] | >10 |
| CC1(C)CCN(C(=O)C2(N3CCC(F)(F)CC3)COC2)C1c1nc(-c2ccc(-c3ccc(-c4c[nH]c(C5N(C(=O)C6(N7CCC(F)(F)CC7)COC6)CCC5(C)C)n4)cc3)cc2)c[nH]1 (stereo not shown) [Compound W-220] | >10 |
| CC1(C)CCN(C(=O)C(=O)N2CCC(F)(F)CC2)C1c1nc(-c2ccc(-c3ccc(-c4c[nH]c(C5N(C(=O)C(=O)N6CCC(F)(F)CC6)CCC5(C)C)n4)cc3)cc2)c[nH]1 (stereo not shown) [Compound W-222] | >100 |
| CC1(C)CCN(C(=O)C(=O)c2ccccc2)C1c1nc(-c2ccc(-c3ccc(-c4c[nH]c(C5N(C(=O)C(=O)c6ccccc6)CCC5(C)C)n4)cc3)cc2)c[nH]1 (stereo not shown) [Compound W-224] | >10 |
| CC1(C)CCN(C(=O)c2cccc3ccccc23)C1c1nc(-c2ccc(-c3ccc(-c4c[nH]c(C5N(C(=O)c6cccc7ccccc67)CCC5(C)C)n4)cc3)cc2)c[nH]1 (stereo not shown) [Compound W-225] | <10 |
